Values quoted from earlier work, collected in patent US9400249B2, “Detection of biopolymer interactions, cancer cells, and pathogens using split-supercharged GFP” (Colorado State University Research Foundation, priority 2012, dated 2016).

Tests used:
[1] = tested on: PC-3 prostate cancer cells; conditions: previously reported
Head and neck cancer = conditions: Targeted cell type: Head and neck cancer; read-out: Approximate affinity (Kd in nM)
[2] = molecular target: Breast cancer, Neuroblastoma; conditions: Targeted cell type: Breast cancer, read-out: Approximate affinity (Kd in nM)
Osteosarcoma = conditions: Targeted cell type: Osteosarcoma; read-out: Approximate affinity (Kd in nM)
Cholangiocarcinoma = conditions: Targeted cell type: Cholangiocarcinoma; read-out: Approximate affinity (Kd in nM)
Hepatocellular carcinoma = conditions: Targeted cell type: Hepatocellular carcinoma; read-out: Approximate affinity (Kd in nM)

Sequence: FRPNRAQDYNTN
- binding to PC-3 prostate cancer cells (Prostate cancer; PC-3 prostate cancer cells, previously reported): potently binds
- Kd (Prostate cancer; Targeted cell type: Prostate cancer, read-out: Approximate affinity (Kd in nM)): ~180 nM
- penetration of PC-3 prostate cancer cells [1]: does not appreciably penetrate

Sequence: TSPLNIHNGQKL [cell targeting peptide, targeted cell type head and neck cancer]
- Kd (Head and neck cancer): ~1000 nM

Sequence: VPWMEPAYQRFL [cell targeting peptide, targeted cell type breast cancer, neuroblastoma]
- Kd [2]: 50000 to 80000 nM

Sequence: ASGALSPSRLDT [cell targeting peptide, targeted cell type osteosarcoma]
- Kd (Osteosarcoma): ~2000 nM

Sequence: TPVLETPKLLLW [cell targeting peptide, targeted cell type cholangiocarcinoma]
- Kd (Cholangiocarcinoma): ~500 nM

Sequence: AGKGTPSLETTP [cell targeting peptide, targeted cell type hepatocellular carcinoma]
- Kd (Hepatocellular carcinoma): ~50 nM
